Series [1] is described as follows: GSH arylation rate constants (NMR; UV-vis for fast warheads). Conditions: for k change (vs ref): ratio to rate constant of 4q, acceleration (+) or deceleration (-). Also on record: key to rate constant (k) for the reaction with GSH / k: NR = no reaction. The format is physicochemical. The text has this:
We employed nuclear magnetic resonance (NMR) and UV–vis to quantify the reactivity of our 2-SP derivatives and other representative electrophiles (Figure 2) against cysteine. NMR allowed straightforward determination of reaction rate constants through dual monitoring of the consumption of the warhead and formation of the product by integration of their respective NMR signals (Figures S1–S3). It simultaneously provided a direct readout on reaction specificity and hydrolytic stability of the warhead. All measurements were carried out in KPi buffer in the presence of 5% d^6-dmso, which is generally well-tolerated by a wide range of proteins in in vitro studies. N-acetylcysteine methylester (NACME) and L-glutathione (GSH) are useful model cysteine nucleophiles for in vitro studies of electrophilic agents.[32] Mixing reference electrophile 2-methylsulfonylpyrimidine (4q) with NACME or GSH in a 1:10 ratio (pseudo-first-order conditions) allowed extraction of accurate and reproducible second order rate constants (k).
Figure 3 In vitro determination of electrophilic reactivity of compounds. (A) NMR assay setup for warhead/GSH reaction rate constant determination and chemoselectivity monitoring, over a 6 h time scale. Purple bead = GSH. Hydrolytic stability was determined in the same way over 36 h. d^4-Trimethylsilylpropanoate (TMSP, blue box) was used as an internal standard for monitoring the warhead solubility. Second-order reaction rate constants (k) were obtained from their pseudo-first-order counterparts (k′), by time-dependent normalized integration of the disappearing warhead signals. […] (B) Experimental second-order rate constants (y axis, log10 scale) for the reaction of representative 2-SP derivatives (left, 11 out of ca. 40 examples) and previously reported heteroarylsulfones (right) with GSH in a KPi buffer, pH 7.0, 20 °C. All rate constants were calculated as an average of at least two independent measurements. Numerical values and standard deviations at both pH 7.0 and 6.5, along with a full list of 2-SPs and other electrophile types tested, are presented in Tables S2–S6 and Figure S4. The horizontal dashed line marks the reaction rate of 2-methylsulfonylpyrimidine at pH 7.0, as a reference when comparing with other reagents (see main text).
To establish an accurate structure–reactivity profile of 2-SP reagents, we systematically determined their reaction rate constants for the arylation of GSH by NMR, at pH 7.0 and 6.5. This was a prerequisite to (i) quantify the influence of substitution on reaction rates; (ii) accurately assess the tunability and chemoselectivity of 2-SPs for cysteine arylation; (iii) determine the influence of pH on the reaction rates to further inform on the precise reaction mechanism; and (iv) benchmark the overall performance of 2-SPs with those of previously reported fast reacting heteroarylsulfones and other common cysteine reactive warheads (Figure 2C,D).

For series [2] the following is noted: pH 7.
Text: Stability and solubility assays
(§1) TopSpin. Normalised integrations of the pyrimidine aromatic 1H signals in the starting material and
(§2) product were plotted as a function of time (s), using the TMSP peak as standard for integral
(§3) calibration/normalisation and monitoring of compound solubility, allowing extraction of pseudo first
(§4) order reaction rate constants (k’). Second order rate constants (k) were back calculated from the ratio
(§5) of the pseudo first counterparts and the concentration of thiol in solution.
(§6) was confirmed by formation of a single S-arylated product (characteristic 2-alkylthioether signals),
(§7) concomitant with formation of the sulfinic acid by -product (leaving group). Hydrolytic stability
(§8) assessment was performed at pH 7.0 and pH 8.2 in a similar manner, in the absence of thiol.
(§9) Chemoselectivity. Similarly, but replacing GSH by other amino acids , reference 2-
(§10) methylsulfonylpyrimidine 4q in 50 mM KPi (pH 8.2) was incubated with 10 equivalents of either Boc-
(§11) Lys-OH, L-ser-OMe, N-Ac-Tyr-OH or Proline were used.
Series [3] has as its target T1, p53-Y220C DBD (Homo sapiens, UniProt P04637, M133L/N239Y/N268D/V203A/Y220C).
T1 construct: (residues 94-312); 6xHis/lipoyl domain/TEV protease cleavage site (N, cleaved yes); made in house; host or cells: E. coli C41
Put plainly: Protein arylation by ESI mass spectrometry. The series is classed as binding. As to the method:
In mass spectrometry experiments, we incubated 50 μM purified p53-Y220C DBD in KPi buffer at varying pH’s (6.0–8.0), temperatures (0 and 20 °C), and equivalents of 2-SPs (20–100). Representative 2-SPs were selected to span a broad reactivity range to determine whether trends observed in GSH in vitro assays translate to relative rates of modification of solvent exposed cysteines in folded proteins. […] The same could also be achieved with only 20 equiv of reagent by increasing the temperature to 20 °C, or raising the pH to 8.0. This is an important result because late-stage protein functionalization with bromo- and iodo-(hetero)aromatic motifs is challenging and inaccessible by metal-catalyzed arylation methodologies due to dehalogenation and/or off-target specificity. The introduction of an iodo-(hetero)aromatic motif on the protein surface facilitates drastically the crystal structure resolution with a sharp variation of density. […] Overall, we observed good correlation between GSH and protein experiments.
Figure 4 Biophysical and structural characterization of protein cysteine arylation by 2-SPs. […] Stoichiometry, reaction time/temperature, and pH are indicated in each case. X axis: m/z (Da). Y axis: normalized intensities as a percentage of the most intense peak. Middle: Structure of the modified Y220C mutant (green) superimposed onto the structure of the unmodified protein (gray, PDB entry 6SHZ)[40] showing the region around modified C182 (E) and C277 (F). Hydrogen bonds formed by the pyrimidine are highlighted as dashed yellow lines. 2Fo – Fc electron density maps are shown at a contour level of 1.3σ for segments of chain B including the modified residues C182 and C277. Bottom (F): Protein thermal stability (ΔTm, °C) of p53-Y220C, β-catenin ARD. and FGE, determined by DSF in the presence of 100 μM 2-SP derivatives. […]

Series [4] can be described thus: Hydrolytic stability in KPi buffer without thiol (NMR). Conditions: pH 8.2; over 12 hours; 50 mM KPi; footnote a: crashing out of solution, no degradation product. The format is physicochemical. The method, then:
NMR studies: rate constant determination and hydrolytic stability. 850 µL of 50 mM Kpi buffer solution (pH 8.2 or 7), 20 µL of the appropriate pyrimidine stock s olution (100 mM in DMSO -d6), 20 µL of TMSP stock solution (22.2 mM in DI water), 30 µL DMSO -d6, and 80 µL of GSH stock solution (0.25 M in DI water, reactivity only) were successively added/mixed at room temperature, final pH 7.0 or 6.5 (Table S1). 600 µL of this freshly prepared solution was poured into an NMR tube and immediately […]
transferred to the NMR instrument for acquisition. 1H spectra (16 scans) were recorded every 10 minutes under water suppression conditions. Following acquisition, spectra were analysed using […]
order reaction rate constants (k’).

The nature of series [5]: Solubility in KPi buffer by NMR with TMSP internal standard. Conditions: 50 mM KPi aqueous buffer, pH 7, aqueous with cosolvent or surfactant or cyclodextrin, kinetic from dmso stock.
Text: Stability and solubility assays
as §1, §2, §3, §4, §5, §6, §7, §8, §9, §10, §11
The subject of series [6] is p53. Set-up: method as in PMID 19411067. The note with it: in vitro; cited from earlier work.
Details of series [7]: method as in PMID 11747461. Conditions: cited from earlier work.

Regarding “2-methylsulfonyl-1,3,4-oxadiazole 5-phenyl [compound 8, reference compound]”, the rate constant (k) for the reaction with GSH stood at 35 ± 2 M⁻¹ s⁻¹ in series [1] (pH 6.5, measured by UV titrations) and 160 ± 9.2 M⁻¹ s⁻¹ in series [1] (pH 7.0, measured by UV titrations). Moreover, the “second order rate constant k with GSH” value in series [1] (pH 7.0, KPi buffer) is “≈ 160 M^–1 s^–1”. Moreover, the “k change (vs ref)” value in series [1] (pH 7.0) is given as “+6,400 fold”. For the same compound, in series [2], the “Solubility upon mixing (t0)” value was 0.1 mM.
Regarding `COc1cnc(S(C)(=O)=O)nc1` [4n], the “rate constant (k) for the reaction with GSH” value is reported as “NR” in series [1] (pH 6.5, by NMR, KPi buffer, 5% DMSO-d6) and “NR” in series [1] (pH 7.0, by NMR, KPi buffer, 5% DMSO-d6). In addition, the “second order rate constant k with GSH” value in series [1] (pH 7.0, KPi buffer) is < 5.0 × 10^–5 M^–1 s^–1. Also, the “protein modification by ESI-MS (in words)” value in series [3] (50 μM protein, all conditions tested, even after 4 h at 20 °C) is listed as “could not detect any protein modification”.
In the case of `COC(=O)c1cnc(S(C)(=O)=O)nc1` [4y], the melting point – broadly, the temperature of the solid-liquid transition – was determined as 128 °C. The k in series [1] (Table S8, rate constants obtained at pH = 7) worked out at 9900 M⁻¹ s⁻¹. Further, in series [1] (pH 7.0, KPi buffer), the “second order rate constant k with GSH” value was “≈ 9900 M^–1 s^–1”. For the same compound, in series [1] (pH 7.0), the “k change (vs ref)” value is reported as “+396,000 fold”. In series [1] (relative to 4q), this compound came in with a k/kref of 396000. Also, the “ΔΔG≠1exp” value in series [1] (relative to 4q, via -RTln(k/kref)) is listed as -32 kJ/mol. Moreover, in series [4], the “% degradation” value turned out to be 100%. In series [3] (20 equiv, pH 6.0, 0 °C), the “protein arylation by ESI-MS (in words)” value was “complete and clean double protein arylation”; the “time to complete double arylation” value is on record as “under 30 s”. In addition, the solubility (as a rule, how much of the substance goes into solution per volume) in series [5] is ≥ 2000 µM.
With `C=C1C(=O)C2CCN1CC2` [APR-244-MQ], in series [6], the “number of cysteines reacted” value is “up to nine”.
With `N[C@@H](CCC(=O)N[C@@H](CS)C(=O)NCC(=O)O)C(=O)O` [GSH, L-glutathione], the “pKa of the sulfhydryl group” value in series [7] is listed as 9.2.
Turning to `COC(=O)[C@H](CS)NC(C)=O` [NACME, N-acetylcysteine methylester], the “pKa of the sulfhydryl group” value in series [7] was 8.3.

Values taken from PMC10515483, “Structure–Reactivity Studies of 2-Sulfonylpyrimidines Allow Selective Protein Arylation” (Bioconjugate Chemistry, 2023).
